Source: patent publication US4137227A, “1-Alkyl-1,4-dihydro-4-oxo-7-triazenyl-3-quinolinecarboxylic acids” (Sterling Drug Inc., priority 1977, dated 1979)
Values after ≈ are worked out from the molar mass of the structure shown. Where two headings read alike, the source gives them in different places.

Columns and labels:
E. coli (1100/B22) = experiment: Autotiter in vitro antibacterial test, E. coli (1100/B22); type: cell-based; details: Escherichia coli, 18-20 hours at 37° C., read-out: minimal inhibitory concentration (MIC)
Experimental: (§1) The antibacterial activity of the compounds of formula I was determined using a modification of the Autotiter® method described by Goss et al. [Applied Microbiology 16 (9), 1414-1416 (1968)] in which a 1,000 mcg./ml. solution of the test compound is prepared. To the first cup of the Autotray® is added 0.1 ml. of the test solution. Activation of the Autotiter initiates a sequence of operations by which 0.05 ml. of the test compound solution is withdrawn from the cup by a Microtiter® transfer loop and diluted in 0.05 ml. of sterile water. Following this operation, 0.05 ml. of inoculated double-strength semisynthetic medium (glucose) is added automatically to each cup. The overall operation results in final drug concentrations ranging from 500 to 0.06 mcg./ml. in twofold decrements. The Autotray is incubated for 18-20 hours at 37° C. at which time the trays are examined visually for growth as evidenced by turbidity, and the concentration of the last sample in the series showing no growth (or no turbidity) is recorded as the minimal inhibitory concentration (MIC) in mcg./ml. The compounds were thus tested as solutions and found active in the range of 7.8 to 125 mcg./ml. (MIC) against one or more of various gram positive and gram negative bacteria including Staphylococcus aureus, Proteus mirabilis, Escherichia coli, Klebsiella pneumoniae and Streptococcus pyogenes.

Strep. pyogens = experiment: Autotiter in vitro antibacterial test, Strep. pyogens; type: cell-based; details: Streptococcus pyogenes, 18-20 hours at 37° C., read-out: minimal inhibitory concentration (MIC)
Experimental: as §1

Prot. mirabilis = experiment: Autotiter in vitro antibacterial test, Prot. mirabilis; type: cell-based; details: Proteus mirabilis, 18-20 hours at 37° C., read-out: minimal inhibitory concentration (MIC)
Experimental: as §1

E. coli (Vogel) = experiment: Autotiter in vitro antibacterial test, E. coli (Vogel); type: cell-based; details: Escherichia coli, 18-20 hours at 37° C., read-out: minimal inhibitory concentration (MIC)
Experimental: as §1

Kleb. pneumoniae = experiment: Autotiter in vitro antibacterial test, Kleb. pneumoniae; type: cell-based; details: Klebsiella pneumoniae, 18-20 hours at 37° C., read-out: minimal inhibitory concentration (MIC)
Experimental: as §1

S. aureus (Smith) = experiment: Autotiter in vitro antibacterial test, S. aureus (Smith); type: cell-based; details: Staphylococcus aureus, 18-20 hours at 37° C., read-out: minimal inhibitory concentration (MIC)
Experimental: as §1

P-388 tumor = details: cited from earlier work; for life-span of mice bearing i.p. implanted P-388 tumor: control animals 10 days
L-1210 leukemia = details: 30 to 40 mg/kg dosage; cited from earlier work
[1] = cited from earlier work

SMILES | MIC (Strep. pyogens) [µg/mL] | MIC (Prot. mirabilis) [µg/mL] | MIC (E. coli (Vogel)) [µg/mL] | MIC (Kleb. pneumoniae) [µg/mL] | MIC (S. aureus (Smith)) [µg/mL] | activity against P-388 tumor (in words) (P-388 tumor; up to 40 mg/kg) | further results
CCCn1cc(C(=O)O)c(=O)c2ccc(N=NN(CC)CC)cc21 [Example E-4, 7-(3,3Diethyl-1-triazenyl)-1,4-dihydro-4-oxo-1-n-propyl-3-quinolinecarboxylic Acid] | 62.5 (≈ 189 µM) | > 500 | > 500 | > 500 | 62.5 (≈ 189 µM) | – | MIC (E. coli (1100/B22)): > 500 µg/mL
CN(C)N=Nc1ccnc2ccc(I)cc12 [Example 6-iodo] | – | – | – | – | – | inactive | –
CN(C)N=Nc1ccnc2c(Cl)cccc12 [Example 8-chloro, 8-chloro-4-(3,3-dimethyl-1-triazeno)quinoline] | – | – | – | – | – | – | activity against P-388 tumor (in words) (P-388 tumor; i.p. dosage of 30 mg/kg): active; life-span of mice bearing i.p. implanted P-388 tumor (P-388 tumor; i.p. dosage of 30 mg/kg): 16 to 18 days; activity against mouse L-1210 leukemia (in words) (L-1210 leukemia): active; increase of life-span, mouse L-1210 leukemia (L-1210 leukemia): 65%
CCCn1cc(C(=O)O)c(=O)c2ccc(N=NN(C)C)cc21 [Example E-3, 1,4-Dihydro-7-(3,3-dimethyl-1-triazenyl)-4-oxo-1-n-propyl-3-quinolinecarboxylic Acid] | 31.3 (≈ 104 µM) | > 125 | > 62.5 | > 125 | > 62.5 | – | MIC (E. coli (1100/B22)): > 62.5 µg/mL
CCn1cc(C(=O)O)c(=O)c2ccc(N=NN(C)C)cc21 [Example E-1, 1-Ethyl-1,4-dihydro-7-(3,3-dimethyl-1-triazenyl)-4-oxo-3-quinolinecarboxylic Acid] | 125 (≈ 434 µM) | – | 7.8 (≈ 27.1 µM) | 500 (≈ 1730 µM) | 15.6 (≈ 54.1 µM) | – | –
CN(C)N=Nc1ccnc2cc(Br)ccc12 [Example 7-bromo] | – | – | – | – | – | inactive | –
CN(C)N=Nc1ccc2c(=O)c(C(=O)O)cn(C)c2c1 [Example E-2, 1,4-Dihydro-1-methyl-7-(3,3-dimethyl-1-triazenyl)-4-oxo-3-quinolinecarboxylic Acid] | 62.5 (≈ 228 µM) | > 125 | 125 (≈ 456 µM) | > 125 | 62.5 (≈ 228 µM) | – | MIC (E. coli (1100/B22)): > 250 µg/mL
CN(C)N=Nc1ccnc2ccc(Br)cc12 [Example 6-bromo] | – | – | – | – | – | inactive | activity against mouse L-1210 leukemia (in words) (L-1210 leukemia): active; increase of life-span, mouse L-1210 leukemia (L-1210 leukemia): 50%
CCn1cc(C(=O)O)c(=O)c2ccc(N=NN3CCN(C)CC3)cc21 [Example E-5, 1-Ethyl-1,4-dihydro-7-[(4-methyl-1-piperazinyl)azo]-4-oxo-3-quinolinecarboxylic Acid] | 125 (≈ 364 µM) | 125 (≈ 364 µM) | 15.6 (≈ 45.4 µM) | 62.5 (≈ 182 µM) | 31.3 (≈ 91.2 µM) | – | –
CN(C)N=Nc1ccnc2cc(Cl)ccc12 [Example 7-chloro, 7-chloro-4-(3,3-dimethyl-1-triazeno)quinoline] | – | – | – | – | – | – | activity against P-388 tumor (in words) (P-388 tumor; i.p. dosage of 30 mg/kg): active; life-span of mice bearing i.p. implanted P-388 tumor (P-388 tumor; i.p. dosage of 30 mg/kg): 16 to 18 days
CN(C)N=Nc1ccnc2c(Br)cccc12 [Example 8-bromo] | – | – | – | – | – | inactive | activity against mouse L-1210 leukemia (in words) (L-1210 leukemia): active; increase of life-span, mouse L-1210 leukemia (L-1210 leukemia): 65%
CN(C)N=Nc1ccnc2ccc(Cl)cc12 [Example 6-chloro, 6-chloro-4-(3,3-dimethyl-1-triazeno)quinoline] | – | – | – | – | – | – | activity against P-388 tumor (in words) (P-388 tumor; i.p. dosage of 30 mg/kg): active; life-span of mice bearing i.p. implanted P-388 tumor (P-388 tumor; i.p. dosage of 30 mg/kg): 16 to 18 days
CN(C)N=Nc1cnc2ccccc2c1 [3,3-dimethyl-1-(3'-quinolinyl)triazene] | – | – | – | – | – | – | stability of crude product on drying ([1]; allowed to dry while crude): decomposes in a puff of smoke; stability of crude product ([1]; crude product): Crude product is very unstable; stability during microanalysis ([1]; during microanalysis): Explodes during microanalysis; stability of purified material on storage ([1]; purified material, on storage): darkens rapidly, but less dramatically, on storage
